Results as given in patent US10556892B2, “Piperazinyl methanone NAAA inhibitors” (priority 2016, dated 2020).
In brackets after ≈: the same amount, converted by molar mass. Like-named read-outs stand apart in the source and are kept apart here. One block for each compound: values may come before it.

What was measured:
[1] = In vitro metabolic stability, mouse liver microsomes; type: in vitro ADME; parameters: dose or concentration left out as unconfirmed; details: pH 7.4, read-out: m-LM stab. t1/2
Procedure: In vitro metabolic stability. Microsomes stability experiments. In vitro incubation with mouse microsomes (NADPH and UDPG system). […] At time zero, cofactors were added. […] The mixture was kept at 37° C. under shaking. Aliquots (50 mL) were taken at various time points and crashed with 0.15 mL of CH3CN spiked with 500 nM warfarin (internal standard). Reference incubation, with microsomes but without cofactors, was kept at 37° C. and sampled at the end of the time course. After vortexing and centrifugation, 3 mL of supernatant were analyzed by LCMS/MS and detected by multiple reaction monitoring (MRM).

Plasma stability = type: in vitro ADME; parameters: dose or concentration left out as unconfirmed; details: mouse plasma; read-out: m-plasma stab. t1/2
h-AC = h-AC (Homo sapiens (Human), UniProt Q13510); test: biochemical; details: read-out: h-AC inh (%) 30 μM
[2] = Aqueous kinetic solubility in PBS pH 7.4; type: physicochemical; details: pH 7.4, aqueous buffer, kinetic from dmso stock; for solubility at 24 h: PBS, Table 7
[3] = phosphate-buffered saline (PBS) pH 7.4, 25 °C, Table 9, read-out: Aq. Skin
[4] = phosphate-buffered saline (PBS), 25 °C, Table 9, read-out: Aq. Skin
[5] = phosphate-buffered saline (PBS), 25 °C
[6] = phosphate-buffered saline (PBS), 25 °C, Table 11, read-out: Aq. Kinetic Solubility
[7] = 25 °C, Table 10, read-out: Aq. Kinetic Solubility
[8] = phosphate-buffered saline (PBS), 25 °C, Table 10, read-out: Aq. Kinetic Solubility

- half-life [1]: > 1 h
- half-life (Plasma stability): > 2 h
- inhibition at 30 µM (h-AC): -1%
SMILES: O=C(c1ccccc1S(=O)(=O)C1CC1)N1CCN(c2nc3ccc(F)cc3s2)CC1 [Compound 22]

- inhibition at 30 µM (h-AC): 1%
SMILES: CCS(=O)(=O)c1ccccc1C(=O)N1CCN(c2nc3ccc(F)cc3s2)[C@H](C)C1 [Compound 24]

- solubility kinetic at 24 h [2, 3]: 6 µM (≈ 2.59 µg/mL)
- half-life [1]: > 1 h
- half-life (Plasma stability): > 2 h
- inhibition at 30 µM (h-AC): -12%
SMILES: CCS(=O)(=O)c1ccccc1C(=O)N1CCN(c2nc3ccc(F)cc3o2)C[C@@H]1C [Compound 26]

- solubility kinetic at 24 h [2, 3]: 124 µM (≈ 55 µg/mL)
- half-life (Plasma stability): > 2 h
- inhibition at 30 µM (h-AC): -12%
SMILES: C[C@H]1CN(c2nc3ccc(F)cc3o2)CCN1C(=O)c1ccccc1S(=O)(=O)C1CC1 [Compound 27]

- solubility kinetic at 24 h [2, 3]: 45 µM (≈ 20 µg/mL)
- half-life (Plasma stability): > 2 h
- inhibition at 30 µM (h-AC): -11%
SMILES: CCCS(=O)(=O)c1ccccc1C(=O)N1CCN(c2nc3ccc(F)cc3o2)C[C@@H]1C [Compound 28]

- solubility kinetic at 24 h [2, 4]: 1 µM (≈ 0.466 µg/mL)
- half-life [1]: > 1 h
- half-life (Plasma stability): > 2 h
SMILES: CCS(=O)(=O)c1ccccc1C(=O)N1CCN(c2nc3ccc(F)c(F)c3s2)C[C@@H]1C [Compound 36]

- solubility kinetic at 24 h [2, 4]: 8 µM (≈ 3.84 µg/mL)
- half-life [1]: > 1 h
- half-life (Plasma stability): > 2 h
- inhibition at 30 µM (h-AC): 9%
SMILES: CCCS(=O)(=O)c1ccccc1C(=O)N1CCN(c2nc3ccc(F)c(F)c3s2)C[C@@H]1C [Compound 37]

- solubility kinetic at 24 h [2, 4]: 14 µM (≈ 6.69 µg/mL)
- half-life (Plasma stability): > 2 h
SMILES: C[C@H]1CN(c2nc3ccc(F)c(F)c3s2)CCN1C(=O)c1ccccc1S(=O)(=O)C1CC1 [Compound 38]

- solubility at 24 h [2, 5]: 76 ± 1 µM (≈ 35.1 µg/mL)
SMILES: CCCS(=O)(=O)c1ccccc1C(=O)N1CCN(c2nc3ccc(F)cc3s2)C[C@@H]1C [Compound 41, [(2S)-4-(6-fluoro-1,3-benzothiazol-2-yl)-2-methyl-piperazin-1-yl]-(2-propylsulfonylphenyl)methanone]

- solubility at 24 h [2, 5]: 115 ± 7 µM (≈ 52.9 µg/mL)
SMILES: C[C@H]1CN(c2nc3ccc(F)cc3s2)CCN1C(=O)c1ccccc1S(=O)(=O)C1CC1 [Compound 42, (2-cyclopropylsulfonylphenyl)-[(2S)-4-(6-fluoro-1,3-benzothiazol-2-yl)-2-methyl-piperazin-1-yl]methanone]

- solubility kinetic at 24 h [2, 6]: 196 µM (≈ 81.4 µg/mL)
SMILES: CCS(=O)(=O)c1ccccc1C(=O)N1CCN(c2nc3ccccc3s2)CC1 [H]

- solubility kinetic at 24 h [2, 6]: 39 µM (≈ 17.4 µg/mL)
SMILES: CCS(=O)(=O)c1ccccc1C(=O)N1CCN(c2nc3ccc(OC)cc3s2)CC1 [OMe]

- solubility kinetic [2, 7]: 5 µM (≈ 2.3 µg/mL)
SMILES: O=C(c1ccccc1S(=O)(=O)C1CCC1)N1CCN(c2nc3ccc(F)cc3s2)CC1 [c-butyl]

- solubility kinetic [2, 7]: < 1 µM
SMILES: O=C(c1ccccc1S(=O)(=O)C1CCCC1)N1CCN(c2nc3ccc(F)cc3s2)CC1 [c-pentyl]

- solubility kinetic [2, 7]: 10 µM (≈ 4.46 µg/mL)
SMILES: O=C(c1ccccc1S(=O)(=O)C1CC1)N1CCN(c2nc3ccc(F)cc3s2)CC1 [c-propyl]

- solubility kinetic at 24 h [2, 8]: < 1 µM
SMILES: CC(C)S(=O)(=O)c1ccccc1C(=O)N1CCN(c2nc3ccc(F)cc3s2)CC1 [i-Pr]

- solubility kinetic at 24 h [2, 8]: 22 µM (≈ 10.2 µg/mL)
SMILES: O=C(c1ccccc1S(=O)(=O)C1COC1)N1CCN(c2nc3ccc(F)cc3s2)CC1 [oxetan-3-yl]
